Where “and” joins values, the source holds several entries; their conditions need not be identical. Equal values may be shown once. Calls of active or inactive are those of the source.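 The calls were made as follows: active = compounds with IC50 below 20 µM; inactive = the rest.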
Each molecule was assayed against Type-1 angiotensin II receptor (Homo sapiens) (UniProt P30556) (assay: AT1 receptor antagonists, beta-arrestin recruitment, SAR follow-up, selectivity assay for APJ antagonist project, cell-based, CHO-K1 PathHunter, luminescence (AID 488810;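 also: agonist challenge with angiotensin II at 50 nM final near its EC80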)). Settings: CHO-K1 AGTR1 PathHunter beta-arrestin, antagonist mode.
Type-1 angiotensin II receptor (Homo sapiens), sequence (P30556 whole entry, looked up): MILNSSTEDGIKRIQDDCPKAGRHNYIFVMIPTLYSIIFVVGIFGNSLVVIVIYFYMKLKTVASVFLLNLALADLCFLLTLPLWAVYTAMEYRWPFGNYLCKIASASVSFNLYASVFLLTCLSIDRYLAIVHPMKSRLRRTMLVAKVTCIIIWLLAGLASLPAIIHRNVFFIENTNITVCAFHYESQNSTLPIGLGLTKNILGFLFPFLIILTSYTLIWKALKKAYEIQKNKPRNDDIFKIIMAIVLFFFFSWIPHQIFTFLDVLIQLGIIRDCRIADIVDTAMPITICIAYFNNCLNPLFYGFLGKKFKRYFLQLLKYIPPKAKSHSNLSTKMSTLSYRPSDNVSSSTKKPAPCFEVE

Row | IC50 | SMILES
1 | 7.56 µM | CCOc1ccc(N=C2C(=O)Nc3ccc(C)c(Br)c32)cc1
2 | 3.24 µM | NC(=O)c1ccccc1NCC(=O)c1ccc(Cl)cc1
3 | 1.27 µM | Cc1ccc(C)c(NCC(=O)c2ccc(Cl)cc2)c1
4 | inactive | CC1(C)CC2(CC(c3ccc(Cl)cc3)c3ccc(O)cc3O2)NC(=S)N1 (stereo not given)
5 | > 79 µM (inactive) | Cc1ccnc(S(=O)(=O)Cc2cc(=O)c(OC(=O)c3ccc(Cl)c([N+](=O)[O-])c3)co2)n1
6 | 9.73 µM | O=C(COC(=O)c1cnccn1)c1ccc(Cl)c([N+](=O)[O-])c1
7 | > 79 µM (inactive) | O=C(Oc1coc(CSc2ncccn2)cc1=O)c1ccc(Cl)cc1
8 | 12.4 µM | Cc1cc(C)nc(NNS(=O)(=O)c2ccc(Cl)cc2)n1
9 | inactive | Cc1cccc(C2CC3(CC(C)(C)NC(=S)N3)Oc3cc(O)cc(C)c32)c1 (stereo not given)
10 | > 79 µM (inactive) | Cc1ccnc(SCc2cc(=O)c(OC(=O)c3ccc([N+](=O)[O-])cc3)co2)n1
11 | > 79 µM (inactive) | CCOc1ccc(C(=O)Oc2coc(CSc3ncccn3)cc2=O)cc1
12 | > 79 µM (inactive) | N#Cc1ccc(C(=O)Oc2coc(CSc3ncccn3)cc2=O)cc1
13 | 10 µM | CCN(CC)CC(=O)c1ccc(-c2ccccc2)cc1
14 | > 79 µM (inactive) | Cc1ccccc1NCC(O)c1ccc(Cl)cc1 (stereo not given)
15 | 1.93 µM and 2.19 µM | COc1ccccc1NCC(=O)c1ccc(Cl)cc1
16 | > 79 µM (inactive) | Cc1ccnc(SCc2cc(=O)c(OC(=O)c3ccc(Cl)cc3)co2)n1
17 | > 79 µM (inactive) | Cc1cc(C)nc(SCc2cc(=O)c(OC(=O)c3ccc(S(=O)(=O)N(C)C)cc3)co2)n1
18 | > 79 µM (inactive) | Cc1ccnc(SCc2cc(=O)c(OC(=O)c3ccc(C(F)(F)F)cc3)co2)n1
19 | inactive | Cc1ccnc(SCc2cc(=O)c(OC(=O)c3cc([N+](=O)[O-])ccc3Cl)co2)n1
20 | inactive | Cn1c(=O)c(C(=S)NC(=O)C2CC2)c(N)n(Cc2ccccc2)c1=O
21 | > 79 µM (inactive) | Cc1cc(C)nc(SCc2cc(=O)c(OC(=O)c3cccc([N+](=O)[O-])c3C)co2)n1
22 | > 79 µM (inactive) | O=C(Oc1coc(CSc2ncccn2)cc1=O)c1ccc([N+](=O)[O-])cc1
23 | inactive | O=S(=O)(NN=Cc1ccc(-c2ccccc2Cl)o1)c1ccccc1

Row | IC50 | SMILES
24 | > 79 µM (inactive) | Cc1cccc(C2CC3(CC(C)(C)NC(=O)N3)Oc3cc(O)c(Cl)cc32)c1 (stereo not given)
25 | > 79 µM (inactive) | COc1ccc(C(=O)Oc2coc(CSc3nccc(C)n3)cc2=O)cc1
26 | 4.99 µM and > 79 µM (inactive) | CC(C)OC(=O)CN1C(=O)C(=O)c2ccccc21
27 | > 79 µM (inactive) | CC1(C)CC2(CC(c3ccc(F)cc3)c3ccc(O)cc3O2)NC(=S)N1 (stereo not given)
28 | > 79 µM (inactive) | O=C(Oc1coc(CSc2ncccn2)cc1=O)c1ccc(S(=O)(=O)N2CCOCC2)cc1
29 | inactive | Cc1ccnc(SCc2cc(=O)c(OC(=O)c3cc(Cl)ccc3[N+](=O)[O-])co2)n1
30 | 9.49 µM | O=C1Nc2ccccc2C1=Nc1ccc(F)cc1
31 | > 79 µM (inactive) | Cc1cc(C)nc(SCc2ccc(O)c(Cl)c2)n1
32 | > 79 µM (inactive) | O=C(Oc1coc(CSc2ccccc2)cc1=O)c1ccc(Cl)c([N+](=O)[O-])c1
33 | > 79 µM (inactive) | C=CCSC1=NC2(CC(c3ccccc3)c3c(C)cc(O)cc3O2)CC(C)(C)N1 (stereo not given)
34 | 14.3 µM | Cc1cccc2c1NC(=O)C2=Nc1ccc(Cl)cc1
35 | > 79 µM (inactive) | O=C(Oc1coc(CSc2ncccn2)cc1=O)c1cccc([N+](=O)[O-])c1
36 | > 79 µM (inactive) | CC1(C)CC2(CC(c3ccccc3Cl)c3cc(Cl)c(OC(=O)C4CC4)cc3O2)NC(=S)N1 (stereo not given)
37 | 19.8 µM | O=C(COC(=O)c1ccncc1)c1ccc(Cl)c(Cl)c1
38 | 5.27 µM | O=C(Nc1nc2ccc(F)cc2s1)c1ccccn1
39 | > 79 µM (inactive) | Cc1c(O)ccc2c1OC1(CC2c2ccccc2Cl)CC(C)(C)NC(=S)N1 (stereo not given)
40 | > 79 µM (inactive) | Cc1ccnc(SCc2cc(=O)c(OC(=O)c3cccs3)co2)n1
41 | inactive | O=C(CNS(=O)(=O)c1ccccc1)OCC(=O)c1cccc([N+](=O)[O-])c1
42 | > 79 µM (inactive) | O=C(O)CN1C(=O)C(=O)c2ccccc21
43 | > 79 µM (inactive) | Cc1ccnc(SCc2cc(=O)c(OC(=O)c3cccc(Cl)c3)co2)n1
44 | 2.56 µM | Cc1ccc(NCC(=O)c2ccccc2)cc1
45 | 3.78 µM | Cc1cc(C)nc(NNS(=O)(=O)c2ccc(F)c(Cl)c2)n1

— PubChem BioAssay AID488810 (Sanford-Burnham Center for Chemical Genomics, 2010)
